# Reference: US5488049A, “Method of treating learning and memory disorders using benzothiadiazide derivatives as nootropic agents” (FIDIA - Georgetown Institute for the Neuro-Sciences, priority 1993, dated 1996)
# Key:
# [1] = tested on: EPSCs elicited in CAl pyramidal neurons; experiment: Excitatory postsynaptic currents (EPSCs) in CAl pyramidal neurons in hippocampal slices on stimulation of Schaffer collateral afferents; assay type: cell-based, rat
# Procedure: Young rats (12-16 days old) were decapitated and the brains quickly removed and placed in ice-cold Ringer solution. Thin slices of hippocampus (250 μm) were then cut with a vibratome slicer (Lancer, St. Louis, Mo.) and kept in Ringer solution at 37° C. until use. The experiments were carried out at room temperature with the slice totally submerged in a 1 ml volume recording chamber and under continuous perfusion with Ringer solution at a rate of 6 ml/min using an upright Hoffman modulation contrast microscope (Carl Zeiss, Germany) equipped with a 40×water immersion objective.
# Ionic currents in whole-cell configuration and outside-out excised membrane patches were monitored using the patch clamp technique (15).
# Traces were filtered at 3 KHz (-3 dB, 8-pole, lowpass Bessel filter, Frequency Devices), and stored in an LSI 11/73 computer (INDEC System, Sunnyvale, Calif.) after digitization (10 KHz) with a Data Translation analog to digital converter. Decay time constants of EPSC and glutamate-activated currents were determined from exponential fitting with the 11/73 system by using an entirely automated least-squares procedures (see Vicini and Schuetze, 1985, for further details). This method uses a Simplex algorithm (Caceci and Cacheris, 1984) to fit the data to either a single or double exponential equation of the form I(t)=If exp(-t/tauf)+Is exp(-t/taus), where If and Is are the amplitudes of the sIPSC fast and slow components, and tauf and taus are their respective decay time constants. Peak amplitudes were measured at the absolute maximum of the currents, taking into account the noise of the baseline and noise around the peak. Rise times were measured as the time elapsed from 20 to 80% of the peak amplitude of the response.
# The action of nootropic drugs on the excitatory postsynaptic currents (EPSCs) elicited in CAl pyramidal neurons in hippocampal slices was investigated by stimulation of the Schaffer collateral afferents.
# [2] = tested on: rats; experiment: Water maze: drug action on learning and retention in rats; assay type: in vivo, rat
# Procedure: Rats (male, 250 g) were trained once a day in maze A (See FIG. 8B forced maze) for 2 consecutive days. The day of the experiment, after a first exposure to maze A, IDRA 21 (15 mg/kg) Aniracetam (500 mg/kg) or vehicle (cont) were administered per oral gavage and 30 min later the animals were exposed once again to Maze A. After 30 min of interatrial rest, rats were exposed to Maze B (see FIG. 8C open maze).
# The water maze apparatus was adapted from Kant et al., (16), and consists of three concentric squares placed inside a 5 ft plastic pool (FIG. 6). The walls of the maze are 50 cm in height and are constructed from black opaque plastic to allow for tracking of the animal with an overhead camera. The alleys between the walls are 16 cm wide. In the center of each wall there is a removable doorway. The opening of doorways allows for the construction of mazes with an increasing number of potential error possibilities. (See diagram for Maze A and Maze B, FIG. 6). The maze is located in a room 10'×15' at constant temperature (18° C.) adjacent to the vivarium. The room is illuminated with overhead lights which also serve as spatial cues. Additional spatial cues are provided by the position of the investigator and a number of small white x's placed within specific locations upon the walls of the maze. The maze is filled with water (18°)C. to a depth of 25 cm.
# Seven days prior to drug studies, rats were tested in Maze A (forced maze) on two consecutive days. Pretesting with the "forced" maze enabled the assessment of the animals' general motor, sensory and motivational abilities, and facilitated the exclusion of those animals unable to meet pretesting criteria. Performance was assessed by determining either swim time, errors committed, or path length measured with a computerized recording device. Errors are defined as whole body entry into alleys not leading directly to the exit platform (i.e., shaded portions in FIG. 6). Rats were excluded from the study if their swim path length and/or number of errors were two standard deviations above the mean […] of the entire group. During the first two trials, the rats were placed into the center of the maze and given a maximum of 180 secs to find the "exit platform" located at the "finish" (FIG. 6). The time required, the number of errors, and the path length were recorded for each trial. […] Rats meeting the criteria were randomly divided into groups. On the day of the experiment, a single trial was run (Maze A) in order to establish a baseline of performance. Following drug administration, the rats were again tested once on Maze A to establish a baseline of post-treatment performance. Following an additional interatrial interval of 30 min., the rats were tested on Maze B.
compound,measurement,setting,value
"CC1Nc2ccc(Cl)cc2S(=O)(=O)N1 (racemic) [IDRA 21, 7-chloro-3-methyl-3,4-dihydro-2H 1,2,4-benzothiadiazine S-S dioxide]",Emax at 1000 µM,"[1]; Rattus norvegicus, Pyramidal neuron, read-out: efficacy in increasing delay time of AMPA current (EPSC) relative to diazoxide",300%
same,Emax,"[1]; Rattus norvegicus, Pyramidal neuron, read-out: response relative to diazoxide (electrophysiology summary)",300%
same,response relative to aniracetam (electrophysiology summary),[1]; summary statement,one order of magnitude larger than that of aniracetam
same,"efficacy in improving water maze performance of trained rats, vs aniracetam",[2]; 0.2 μmol icv vs aniracetam 1.8 μmol icv,at least as efficacious as aniracetam
same,"performance in water maze (errors and time, Maze B)",[2]; 15 mg/kg os,"significantly improves the performance of rats, reducing the number of errors and the time interval in accomplishing the task in Maze B"
same,improvement of water maze performance,"[2]; FIG. 8A, IDRA 21 15 mg/kg, Aniracetam 500 mg/kg oral",improve water performance in rats
same,significance (P) of water maze performance vs control,"[2]; IDRA 21 15 mg/kg, Aniracetam 500 mg/kg per oral gavage, at least 5 rats",< 0.05
same,potency vs aniracetam in potentiating learning and enhancing cognitive performance,"[2]; racemic form, naive rats and rats with alprazolam-disrupted learning",at least an order of magnitude more potent than aniracetam
